± gives the expanded uncertainty stated by the source.
Key:
[1] = wn = mass fraction of the nth substance listed; conditions: 100 kPa, Liquid, Vibrating tube method
[2] = refractive index (Na D-line) (dimensionless); wn = mass fraction of the nth substance listed; conditions: 100 kPa, Liquid, Standard Abbe refractometry

Row | mass density ([1]; 288.15 K, w1 = 0.4413) [kg/m3] | mass density ([1]; 308.15 K, w1 = 0.4664) [kg/m3] | refractive index ([2]; 288.15 K, w1 = 0.4413) | refractive index ([2]; 308.15 K, w1 = 0.4664) | mass density ([1]; 288.15 K, w1 = 0.2601) [kg/m3] | mass density ([1]; 308.15 K, w1 = 0.2537) [kg/m3] | refractive index ([2]; 288.15 K, w1 = 0.2601) | refractive index ([2]; 308.15 K, w1 = 0.2537) | Compound
1 | 1287.19 ± 1.1 | 1301.11 ± 1.1 | 1.4394 ± 0.0004 | 1.4365 ± 0.0004 | – | – | – | – | [Cl-].[Li+] [lithium chloride] + O
2 | – | – | – | – | 1236.43 ± 1 | 1226.22 ± 1 | 1.3845 ± 0.0004 | 1.3738 ± 0.0004 | O=S(=O)([O-])[O-].[Li+].[Li+] [lithium sulfate] + O

From the NIST ThermoML archive (doi:10.1021/acs.jced.5b00805)
